Patent US20240246934A1, “QUINAZOLINE-BASED COMPOUND, COMPOSITION, AND APPLICATION OF QUINAZOLINE-BASED COMPOUND” (BEIJING SCITECH-MQ PHARMACEUTICALS LIMITED, priority 2021, published 2024)
Where two headings read alike, the source gives them in different places.

Tests used:
[1] = molecular target: Ba/F3 EGFR D770_N771insSVD cells (Homo sapiens, UniProt P00533, DUP768-770, cells depend on it); assay: Inhibition of cell proliferation, CTG method, Ba/F3 EGFR D770_N771insSVD; type: cell-based; conditions: 72 hours, read-out: Ba/F3 EGFR D770_N771insSVD IC50
Ba/F3 EGFR D770_N771insSVD cells, sequence (P00533 with tags, fused parts or gaps DUP768-770): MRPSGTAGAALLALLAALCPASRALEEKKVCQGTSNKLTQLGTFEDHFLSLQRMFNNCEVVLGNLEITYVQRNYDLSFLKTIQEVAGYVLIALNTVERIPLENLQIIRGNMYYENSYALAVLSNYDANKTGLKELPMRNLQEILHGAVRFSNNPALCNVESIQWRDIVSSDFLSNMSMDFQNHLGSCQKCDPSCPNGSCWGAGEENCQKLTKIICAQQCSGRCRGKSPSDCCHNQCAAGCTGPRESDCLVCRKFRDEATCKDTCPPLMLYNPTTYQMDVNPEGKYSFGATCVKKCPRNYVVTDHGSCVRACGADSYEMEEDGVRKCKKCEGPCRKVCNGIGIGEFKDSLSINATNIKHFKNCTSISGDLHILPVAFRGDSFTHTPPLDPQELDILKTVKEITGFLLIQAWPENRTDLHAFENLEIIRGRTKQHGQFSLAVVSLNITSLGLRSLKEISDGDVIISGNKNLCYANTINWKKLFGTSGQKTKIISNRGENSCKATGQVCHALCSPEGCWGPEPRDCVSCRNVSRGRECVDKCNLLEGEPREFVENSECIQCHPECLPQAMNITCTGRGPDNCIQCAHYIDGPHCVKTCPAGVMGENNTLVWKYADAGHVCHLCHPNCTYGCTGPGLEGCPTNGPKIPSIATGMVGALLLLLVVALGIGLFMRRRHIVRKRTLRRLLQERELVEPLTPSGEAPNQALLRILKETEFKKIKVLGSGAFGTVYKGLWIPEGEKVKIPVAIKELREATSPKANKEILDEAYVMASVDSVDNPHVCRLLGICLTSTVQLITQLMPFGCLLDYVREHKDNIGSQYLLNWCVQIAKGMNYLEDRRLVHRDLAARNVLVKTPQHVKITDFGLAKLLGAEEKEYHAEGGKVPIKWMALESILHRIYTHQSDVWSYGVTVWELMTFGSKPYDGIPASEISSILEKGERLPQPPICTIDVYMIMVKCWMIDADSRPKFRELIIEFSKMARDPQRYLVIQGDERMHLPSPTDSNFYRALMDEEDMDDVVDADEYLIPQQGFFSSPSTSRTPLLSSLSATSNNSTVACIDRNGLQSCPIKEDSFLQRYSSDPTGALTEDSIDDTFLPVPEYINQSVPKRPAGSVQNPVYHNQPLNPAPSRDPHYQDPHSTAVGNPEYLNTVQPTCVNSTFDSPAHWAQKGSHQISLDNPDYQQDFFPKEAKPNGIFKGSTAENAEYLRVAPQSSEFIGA
From the text: (§1) The present application examined the in vitro anti-proliferative activity of the compounds of the present disclosure against in vitro cultured BT474, NCI-N87, Ba/F3-EGFR-VIII and Ba/F3 HER2 A775_G776insYVMA and Ba/F3 EGFR D770_N771insSVD cell lines by CTG method.
(§2) Reagents and consumables: RPMI1640 (ThermoFisher, Cat. No. C11875500BT); fetal bovine serum (Hyclone, Cat. No. SV30087.03); 0.25% trypsin-EDTA (ThermoFisher, Cat. No. 25200-072); penicillin-streptomycin (Hyclone, Cat. No. SV30010); DMSO (Amresco, Cat. No. 0231-500ML); CTG assay kit (Promega, Cat. No. G924C); 96-well plate (Corning, Cat. No. 3603); multifunctional plate reader (Perkin Elmer, Cat. No. Envision)
(§3) Cell lines: BT474 (from the cell bank of Chinese Academy of Sciences), NCI-N87 (from ATCC), Ba/F3-EGFR-VIII, Ba/F3 HER2 A775_G776insYVMA and Ba/F3 EGFR D770_N771insSVD (all from KYinno Biotechnology (Beijing) Co., Ltd.); all of the above cells were cultured with RPMI1640 medium containing 10% fetal bovine serum, 100 U/mL penicillin, and 100 μg/mL streptomycin in the culture process.
(§4) 1. The assay compound was dissolved with DMSO to form a stock solution and a gradient dilution was performed, followed by dilution with the corresponding medium to obtain a solution with 5-fold working concentration.
(§5) 2. Cells in logarithmic growth phase were adjusted to specific cell densities by dilution with culture medium, and 80 μL of cell suspension was added to a 96-well plate, such that plating densities of cells of BT474, NCI-N87, Ba/F3-EGFR-VIII, Ba/F3 HER2 A775_G776insYVMA and Ba/F3 EGFR D770_N771insSVD were all 3000 cells/well. The cells of Ba/F3-EGFR-VIII, Ba/F3 HER2 A775_G776insYVMA and Ba/F3 EGFR D770_N771insSVD were used directly in the next step (treatment with compound), whereas the BT474 and NCI-N87 needed to be cultured overnight in a 37° C., 5% carbon dioxide gas incubator to adhere to the wall, and then treated with compounds.
(§6) 3. 20 μL of compound solution was added to each well of the 96-well plate that had been inoculated with cells. The highest concentration of the assayed compound was 10 μM, 4-fold serial dilution, a total of 9 concentrations, and duplicate wells. A control group without compound was also set up.
(§7) 4. The cells were cultured for another 72 hours, and then cell viability was detected by CTG assay kit. Signal values were read with a multifunctional plate reader (Perkin Elmer). GraphPad Prism software was used to create a dose-response curve and IC50 was calculated.

[2] = Pharmacokinetics in SD rats, single intravenous injection and oral administration; type: in vivo, SD rat; conditions: for AUC(0-inf) / AUC(0-t) / Vd / half-life / bioavailability / Cmax / Tmax: SD, rat, whole blood; for bioavailability: PO 10 mg/kg vs IV 3 mg/kg, read-out: F % (bioavailability)
Outline: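 SD rats received a single IV or oral dose of a solution formulation; the oral group was fasted overnight (>12 hrs) and fed 2 hrs post-dose, the IV group not fasted. Blood and brain were sampled at set times and analysed by LC/MS; CL, Vd, T1/2, Cmax, Tmax, AUC, MRT and F % come from plasma concentration-time data.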

[3] = system: NCI-N87 cells; assay: Inhibition of cell proliferation, CTG method, NCI-N87; type: cell-based; conditions: Homo sapiens, 72 hours, read-out: hNCI-N87 IC50
From the text: as §1, §2, §3, §4, §5, §6, §7

[4] = system: BT474 cells; assay: Inhibition of cell proliferation, CTG method, BT474; type: cell-based; conditions: Homo sapiens, BT-474, 72 hours, read-out: hBT474 IC50
From the text: as §1, §2, §3
1. […]
as §7

[5] = Brain tissue and whole blood concentration in SD rats after oral administration; type: in vivo; conditions: rat, PO 10 mg/kg, 2 h after administration
Protocol: In this assay, the pharmacokinetic characteristics of the compounds of the present application were assayed after administration of some of the compounds of the present application to SD rats by single oral administration and intravenous injection.
2. […] The mixture was stirred, vortexed and/or sonicated. Once a solution was obtained, the vehicle was gradually added to a final volume to reach the target concentration. The solution was vortexed, and sonicated to obtain a homogeneous solution.
Meanwhile, the IV group was not fasted and the PO group was fasted overnight (>12 hrs) and given food 2 hrs after drug administration. All animals had free access to water. The dosing regimen and pharmacokinetic sampling regimen are given in Table 6 and Table 7 below, respectively.
Rats were administered according to the above regimen, and blood and brain tissue samples were collected and processed at predetermined time points (collection and processing were performed according to conventional methods in the art).
The supernatant was diluted 2-fold with ultra-pure water, and the samples were analyzed by LC/MS.
Brain tissues were weighed and homogenized by adding 4-fold homogenizing solution (acetonitrile/water=1/1 v/v). […] The supernatant was diluted 2-fold with ultra-pure water, and the samples were analyzed by LC/MS.

[6] = NA: Exposure was too low to be counted
[7] = PO 10 mg/kg, NA: Exposure was too low to be counted

| SMILES | GI50 [1] [nM] | Cl_obs ([2]; IV 3 mg/kg) [mL/min/kg] | AUC(0-inf) ([2]; IV 3 mg/kg) [ng·h/mL] | AUC(0-t) ([2]; IV 3 mg/kg) [ng·h/mL] | Vd ([2]; IV 3 mg/kg) [L/kg] | half-life ([2]; IV 3 mg/kg) [h] | bioavailability [2, 6] [%] | AUC(0-inf) [2, 7] [ng·h/mL] | AUC(0-t) [2, 7] [ng·h/mL] | Cmax [2, 7] [ng/mL] | Tmax [2, 7] [h] | half-life [2, 7] [h] | IC50 [3] [nM] | IC50 [4] [nM] | concentration at 2 h ([5]; whole blood, read-out: Blood drug concentration) [ng/mL] | Kp at 2 h ([5]; brain / whole blood, read-out: Brain tissue/blood ratio) | concentration at 2 h ([5]; brain, NA: Exposure was too low to be counted, read-out: Brain tissue concentration) [ng/g] |
| --- | --- | --- | --- | --- | --- | --- | --- | --- | --- | --- | --- | --- | --- | --- | --- | --- | --- |
| COc1c(NC(=O)/C=C/[C@H]2CCCN2C)ccc2ncnc(Nc3ccc(OCc4ccccn4)c(Cl)c3)c12 [Example 4, (R,E)-N-(4-((3-chloro-4-(pyridin-2-ylmethoxy)phenyl)amino)-5-methoxyquinazolin-6-yl)-3-(1-methylpyrrolidin-2-yl)acrylamide] | 10 to 100 | 52.1 ± 9.3 | 979 ± 161 | 968 ± 156 | 20.2 ± 2.6 | 4.5 ± 0.21 | 27.6 ± 6.8 | 902 ± 223 | 888 ± 221 | 65.7 ± 19.9 | 5.33 ± 2.89 | 3.69 ± 0.31 | < 1 | 5 to 10 |  |  |  |
| COCCCOc1c(NC(=O)/C=C/[C@H]2CCCN2C)ccc2ncnc(Nc3ccc(OCc4ccccn4)c(Cl)c3)c12 [Example 9, (R,E)-N-(4-((3-chloro-4-(pyridin-2-ylmethoxy)phenyl)amino)-5-(3-methoxypropoxy)quinazolin-6-yl)-3-(1-methylpyrrolidin-2-yl)acrylamide] | 10 to 100 | 53.0 ± 6.7 | 955 ± 130 | 949 ± 128 | 18 ± 2.3 | 3.94 ± 0.18 | 34.9 ± 12.6 | 1110 ± 403 | 1100 ± 406 | 80.3 ± 30.5 | 5 ± 3.46 | 4.13 ± 0.57 |  |  |  |  |  |
| CCN1CCC[C@@H]1/C=C/C(=O)Nc1ccc2ncnc(Nc3ccc(OCc4ccccn4)c(Cl)c3)c2c1OC [Example 29, (R,E)-N-(4-((3-chloro-4-(pyridin-2-ylmethoxy)phenyl)amino)-5-methoxyquinazolin-6-yl)-3-(1-ethylpyrrolidin-2-yl)acrylamide] | 10 to 100 | 54.0 ± 7.4 | 938 ± 134 | 914 ± 129 | 22.7 ± 2.4 | 4.86 ± 0.23 | 36.3 ± 3.4 | 1130 ± 106 | 1100 ± 107 | 95.3 ± 16.5 | 3.33 ± 3.21 | 4.63 ± 0.26 |  |  | 121 | 0.36 | 43.5 |
